Data published in the supplement of paper PMC9663587.

Legend:
Doxorubicin = compound: COc1cccc2c1C(=O)c1c(O)c3c(c(O)c1C2=O)C[C@@](O)(C(=O)CO)C[C@@H]3O[C@H]1C[C@H](N)[C@H](O)[C@H](C)O1 [Doxorubicin]
BSJ-01-175 = compound: CN(C)C/C=C/C(=O)Nc1ccc(O[C@@H]2CCC[C@@H](Nc3ncc(Cl)c(-c4c[nH]c5ccccc45)n3)C2)cc1 [BSJ-01-175]
INK128/MLN0128 = compound: CC(C)n1nc(-c2ccc3oc(N)nc3c2)c2c(N)ncnc21 [INK128/MLN0128]
Taselisib/GDC0032 = compound: Cc1nc(-c2cn3c(n2)-c2ccc(-c4cnn(C(C)(C)C(N)=O)c4)cc2OCC3)n(C(C)C)n1 [Taselisib/GDC0032]
Ceritinib/LDK378 = compound: Cc1cc(Nc2ncc(Cl)c(Nc3ccccc3S(=O)(=O)C(C)C)n2)c(OC(C)C)cc1C1CCNCC1 [Ceritinib/LDK378]
BSJ-03-123 [1] = compound: T1, CC(=O)c1c(C)c2cnc(Nc3ccc(N4CCN(CCOCCOCCOCCNC(=O)COc5cccc6c5C(=O)N(C5CCC(=O)NC5=O)C6=O)CC4)cn3)nc2n(C2CCCC2)c1=O [BSJ-03-123]
Rucaparib = compound: CNCc1ccc(-c2[nH]c3cc(F)cc4c3c2CCNC4=O)cc1 [Rucaparib]
Vorinostat = compound: O=C(CCCCCCC(=O)Nc1ccccc1)NO [Vorinostat]
THZ531 [2] = compound: T2, CN(C)C/C=C/C(=O)Nc1ccc(C(=O)N2CCC[C@@H](Nc3ncc(Cl)c(-c4c[nH]c5ccccc45)n3)C2)cc1 [THZ531]
[3] = compound: CO[C@@H](C)Cn1c(=O)n(C)c2cnc3ccc(-c4cncc(C(C)(C)O)c4)cc3c21
[4] = compound: CC(=O)c1c(C)c2cnc(Nc3ccc(N4CCNCC4)cn3)nc2n(C2CCCC2)c1=O
Volasertib/BI6727 = compound: CC[C@@H]1C(=O)N(C)c2cnc(Nc3ccc(C(=O)N[C@H]4CC[C@H](N5CCN(CC6CC6)CC5)CC4)cc3OC)nc2N1C(C)C [Volasertib/BI6727]
Neratinib/HKI272 [5] = compound: T3, CCOc1cc2ncc(C#N)c(Nc3ccc(OCc4ccccn4)c(Cl)c3)c2cc1NC(=O)/C=C/CN(C)C [Neratinib/HKI272]
[6] = compound: CC(=O)Nc1cccc(-n2c(=O)n(C3CC3)c(=O)c3c(Nc4ccc(I)cc4F)n(C)c(=O)c(C)c32)c1
Dasatinib = compound: Cc1nc(Nc2ncc(C(=O)Nc3c(C)cccc3Cl)s2)cc(N2CCN(CCO)CC2)n1 [Dasatinib]
AZD2014 = compound: CNC(=O)c1cccc(-c2ccc3c(N4CCOC[C@@H]4C)nc(N4CCOC[C@@H]4C)nc3n2)c1 [AZD2014]
THZ1 = compound: CN(C)C/C=C/C(=O)Nc1ccc(C(=O)Nc2cccc(Nc3ncc(Cl)c(-c4c[nH]c5ccccc45)n3)c2)cc1 [THZ1]; test: increase in dead-cell fraction, 72 h; higher = more death;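 also: breast cancer cell lines in 384-well plates, stained with Hoechst plus LIVE/DEAD far red dye and imaged, cells above an LDR intensity threshold counted dead, Hoechst-negative corpses included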
BSJ-03-123 [7] = compound: T1, BSJ-03-123; test: as above
[8] = compound: CCc1cnn2c(NCc3ccc[n+]([O-])c3)cc(N3CCCC[C@H]3CCO)nc12; test: as above
THZ531 [9] = compound: T2, THZ531; test: as above
Neratinib/HKI272 [10] = compound: T3, Neratinib/HKI272; test: as above
YKL-5-124 = compound: C=CC(=O)Nc1ccc(C(=O)Nc2[nH]nc3c2CN(C(=O)N[C@H](CN(C)C)c2ccccc2)C3(C)C)cc1 [YKL-5-124]; test: as above
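For GR50, 72 h in this document: breast cancer and non-malignant breast epithelial cell lines, Deep Dye Drop or Dye Drop imaging, nine half-log doses, GR normalized to time-zero plates and DMSO-only controls.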

In the case of HCC1395, the “GR50, 72 h” value (Doxorubicin) is reported as 0.0179 µM, the “GR50, 72 h” value (BSJ-01-175) is reported as 0.015 µM and the “GR50, 72 h” value (INK128/MLN0128) is reported as 0.0108 µM. The “GR50, 72 h” value (Taselisib/GDC0032) was 2.14 µM, the “GR50, 72 h” value (Ceritinib/LDK378) was 1.6 µM and the “GR50, 72 h” value (BSJ-03-123 [1]) was 1.12 µM. For the same cell line, the “GR50, 72 h” value (Rucaparib) was 0.957 µM, the “GR50, 72 h” value (Vorinostat) was 3.27 µM and the “GR50, 72 h” value (THZ531 [2]) was 0.0785 µM. The “GR50, 72 h” value [3] was 0.00497 µM, the “GR50, 72 h” value [4] was 0.0952 µM and the “GR50, 72 h” value (Volasertib/BI6727) was 0.00321 µM. For the same cell line, the “GR50, 72 h” value (Neratinib/HKI272 [5]) was 0.958 µM, the “GR50, 72 h” value [6] was 0.172 µM and the “GR50, 72 h” value (Dasatinib) was 0.0748 µM. For the same cell line, the “GR50, 72 h” value (AZD2014) was 0.0101 µM, the “increase in dead-cell fraction” value (THZ1; 0.0001 µM) was -0.017 and the “increase in dead-cell fraction” value (THZ1; 0.0003162 µM) was -0.002. For the same cell line, the “increase in dead-cell fraction” value (THZ1; 0.001 µM) was -0.0182, the “increase in dead-cell fraction” value (THZ1; 0.003162 µM) was 0.0057 and the “increase in dead-cell fraction” value (THZ1; 0.01 µM) was 0.0001. The “increase in dead-cell fraction” value (THZ1; 0.03162 µM) was 0.0489, the “increase in dead-cell fraction” value (THZ1; 0.1 µM) was 0.193 and the “increase in dead-cell fraction” value (THZ1; 0.3162 µM) was 0.25. The “increase in dead-cell fraction” value (THZ1; 1 µM) was 0.469, the “increase in dead-cell fraction” value (BSJ-03-123 [7]; 0.001 µM) was 0.0154 and the “increase in dead-cell fraction” value (BSJ-03-123 [7]; 0.003162 µM) was 0.0016. For the same cell line, the “increase in dead-cell fraction” value (BSJ-03-123 [7]; 0.01 µM) was 0.0046, the “increase in dead-cell fraction” value (BSJ-03-123 [7]; 0.03162 µM) was 0.0156 and the “increase in dead-cell fraction” value (BSJ-03-123 [7]; 0.1 µM) was 0.0199. The “increase in dead-cell fraction” value (BSJ-03-123 [7]; 0.3162 µM) was 0.0113, the “increase in dead-cell fraction” value (BSJ-03-123 [7]; 1 µM) was 0.0316 and the “increase in dead-cell fraction” value (BSJ-03-123 [7]; 3.162 µM) was 0.0201. The “increase in dead-cell fraction” value (BSJ-03-123 [7]; 10 µM) was 0.13, the “increase in dead-cell fraction” value ([8]; 0.0001 µM) was 0.005 and the “increase in dead-cell fraction” value ([8]; 0.0003162 µM) was -0.0006. For the same cell line, the “increase in dead-cell fraction” value ([8]; 0.001 µM) was -0.004, the “increase in dead-cell fraction” value ([8]; 0.003162 µM) was 0.0091 and the “increase in dead-cell fraction” value ([8]; 0.01 µM) was 0.0238. The “increase in dead-cell fraction” value ([8]; 0.03162 µM) was 0.263, the “increase in dead-cell fraction” value ([8]; 0.1 µM) was 0.368 and the “increase in dead-cell fraction” value ([8]; 0.3162 µM) was 0.378. For the same cell line, the “increase in dead-cell fraction” value ([8]; 1 µM) was 0.387, the “increase in dead-cell fraction” value (THZ531 [9]; 0.0001 µM) was 0.0083 and the “increase in dead-cell fraction” value (THZ531 [9]; 0.0003162 µM) was -0.0121. For the same cell line, the “increase in dead-cell fraction” value (THZ531 [9]; 0.001 µM) was 0.0071, the “increase in dead-cell fraction” value (THZ531 [9]; 0.003162 µM) was 0.0027 and the “increase in dead-cell fraction” value (THZ531 [9]; 0.01 µM) was -0.0161. The “increase in dead-cell fraction” value (THZ531 [9]; 0.03162 µM) was -0.0019, the “increase in dead-cell fraction” value (THZ531 [9]; 0.1 µM) was 0.0618 and the “increase in dead-cell fraction” value (THZ531 [9]; 0.3162 µM) was 0.113. For the same cell line, the “increase in dead-cell fraction” value (THZ531 [9]; 1 µM) was 0.242, the “increase in dead-cell fraction” value (Neratinib/HKI272 [10]; 0.0003162 µM) was 0.0064 and the “increase in dead-cell fraction” value (Neratinib/HKI272 [10]; 0.001 µM) was -0.004. The “increase in dead-cell fraction” value (Neratinib/HKI272 [10]; 0.003162 µM) was 0.0024, the “increase in dead-cell fraction” value (Neratinib/HKI272 [10]; 0.01 µM) was 0.0027 and the “increase in dead-cell fraction” value (Neratinib/HKI272 [10]; 0.03162 µM) was -0.0039. For the same cell line, the “increase in dead-cell fraction” value (Neratinib/HKI272 [10]; 0.1 µM) was 0.0013, the “increase in dead-cell fraction” value (Neratinib/HKI272 [10]; 0.3162 µM) was 0.0091 and the “increase in dead-cell fraction” value (Neratinib/HKI272 [10]; 1 µM) was 0.012. For the same cell line, the “increase in dead-cell fraction” value (Neratinib/HKI272 [10]; 3.162 µM) was 0.141, the “increase in dead-cell fraction” value (YKL-5-124; 0.001 µM) was 0.0251 and the “increase in dead-cell fraction” value (YKL-5-124; 0.003162 µM) was 0.0285. For the same cell line, the “increase in dead-cell fraction” value (YKL-5-124; 0.01 µM) was 0.0648, the “increase in dead-cell fraction” value (YKL-5-124; 0.03162 µM) was 0.0466 and the “increase in dead-cell fraction” value (YKL-5-124; 0.1 µM) was 0.0638. The “increase in dead-cell fraction” value (YKL-5-124; 0.3162 µM) was 0.0762, the “increase in dead-cell fraction” value (YKL-5-124; 1 µM) was 0.0835 and the “increase in dead-cell fraction” value (YKL-5-124; 3.162 µM) was 0.0876. For the same cell line, the “increase in dead-cell fraction” value (YKL-5-124; 10 µM) was 0.152.
